Measurements reported in patent US12398093B2, “Compounds and methods for treating inflammatory disorders” (Board of Supervisors of Louisiana State University and …, priority 2019, dated 2025).
Values joined by “and” are separate entries in the source; they are usually repeats but may differ in a detail not shown here. Identical values can stand only once. Like-named read-outs stand apart in the source and are kept apart here. Marks after values point to notes of the source that are not given here.

What was measured:
C57BL/6J mice = assay: Head twitch response (HTR), magnetometer detection; format: in vivo; conditions: for HTR counts, mean: 30-minute session; for ED50: Mus musculus
Method: The head twitch response (HTR) can be used as a behavioral proxy in rodents for human hallucinogenic effects, because it can reliably distinguish hallucinogenic and non-hallucinogenic 5-HT2A receptor agonists. […] HTR studies were conducted with (R)-DOI and 2C-iBu in C57BL/6J mice.
Male C57BL/6J mice (6-8 weeks old) obtained from Jackson Laboratories (Bar Harbor, ME, USA) were housed at up to four per cage in a climate-controlled room on a reverse-light cycle (lights on at 1900 h, off at 0700 h) and were provided with ad libitum access to food and water, except during behavioral testing. Testing was conducted between 1000 and 1800 h.
Drug doses are based on the equivalent freebase weight. Test substances were dissolved in sterile isotonic saline and injected subcutaneously (SC) at a volume of 5 mL/kg.
The HTR was assessed using a head-mounted magnet and a magnetometer detection coil, according to known methods. Briefly, mice were anesthetized, a small incision was made in the scalp, and a small neodymium magnet was attached to the dorsal surface of the cranium using dental cement. Following a two-week recovery period, HTR experiments were carried out in a well-lit room with at least seven days between sessions to avoid carryover effects. Test compounds were injected immediately prior to testing. Mice were injected with drug or vehicle and then HTR activity was recorded in a glass cylinder surrounded by a magnetometer coil. Coil voltage was low-pass filtered (2-10 kHz cutoff frequency), amplified, and digitized (20 kHz sampling rate) using a Powerlab/8SP with LabChart v 7.3.2 (ADInstruments, Colorado Springs, CO, USA), then filtered off-line (40-200 Hz band-pass).
Experiment 1. Five groups of mice (n=6/group, 30 total) were treated with vehicle or R-DOI (0.1, 0.3, 1, or 3 mg/kg) and HTR activity was assessed for 30 minutes. Experiment 2. Five groups of mice (n=6-7/group, 34 total) were treated with vehicle or 2C-iBu (0.3, 1, 3, or 10 mg/kg) and HTR activity was assessed for 30 minutes. Experiment 3. Two groups of mice (n=7/group, 14 total) were treated with R-DOI (1 mg/kg) or 2C-iBu (3 mg/kg) and HTR activity was assessed for 210 minutes.
For Experiment 1 and Experiment 2, the entire thirty-minute recordings were examined for head twitches, head twitch counts were analyzed using one-way analyses of variance (ANOVA). In addition, HTR counts were analyzed in two-minute time blocks using one-way ANOVAs, with time as a repeated measure. Post hoc pairwise comparisons between selected groups were performed using Tukey's studentized range method.
A Gaussian distribution was used to fit biphasic HTR dose-response data:
[formula] [formula] In these equations, E is the drug effect, Baseline is the response in the control group, Range is the distance from Baseline to the top of the curve, [A] is the dose of the drug, and midA is the logarithm of the dose corresponding to the top of the curve. To determine whether potency differences exist between individual compounds, ED50 values were compared using an extra-sum-of-squares F-test.
For Experiment 3, HTR counts were examined in 5-min time blocks. To determine the half-life of drug responses, the descending phase of the data was fitted with a one-phase exponential decay function. The responses produced by R-(−)-DOI (1 mg/kg) or ELEU02 were analyzed using one-way ANOVA, with time as a repeated measure. Post hoc pairwise comparisons between groups were performed using Sidak's multiple comparisons test.

5-HT2AR-Tango construct = biological target: T1, 5-HT2AR-Tango construct (Homo sapiens, UniProt P28223); assay: β-arrestin-2 recruitment, PRESTO-Tango assay in HTLA cells; format: cell-based; conditions: HTLA; read-out: EMAX (%) beta arrestin recruitment
T1 construct: expressed in transfected cells; host or cells: HTLA cells (transient transfection)

[1] = In vitro metabolism, intrinsic clearance in human liver microsomes; format: in vitro ADME
[2] = In vitro protein binding in human plasma; format: in vitro ADME; conditions: 1.0×10^−5 M; for recovery: human, plasma, protein binding assay
[3] = In vitro absorption, Caco-2 permeability; format: in vitro ADME; conditions: human, Caco-2, pH 6.5, Caco-2, pH 6.5/7.4, 1.0×10^−5 M
5-HT2B (h) = 5-HT2B (h) (Homo sapiens, UniProt P41595); assay: Radioligand binding, agonist radioligand [125I](±)DOI
human 5-HT2A receptor = biological target: T2, human 5-HT2A receptor (Homo sapiens, UniProt P28223); assay: Gq-mediated calcium transients (calcium mobilization), Fluo-4, HEK cells; format: cell-based; conditions: HEK293, read-out: EMAX (%) calcium mobilization
T2 construct: expressed in transfected cells

[4] = incubation 0 minutes, 1.0×10^−7 M
[5] = incubation 15 minutes, 1.0×10^−7 M
[6] = incubation 30 minutes, 1.0×10^−7 M
[7] = incubation 45 minutes, 1.0×10^−7 M
[8] = incubation 60 minutes, 1.0×10^−7 M

T1 sequence (P28223 whole entry, added parts left off): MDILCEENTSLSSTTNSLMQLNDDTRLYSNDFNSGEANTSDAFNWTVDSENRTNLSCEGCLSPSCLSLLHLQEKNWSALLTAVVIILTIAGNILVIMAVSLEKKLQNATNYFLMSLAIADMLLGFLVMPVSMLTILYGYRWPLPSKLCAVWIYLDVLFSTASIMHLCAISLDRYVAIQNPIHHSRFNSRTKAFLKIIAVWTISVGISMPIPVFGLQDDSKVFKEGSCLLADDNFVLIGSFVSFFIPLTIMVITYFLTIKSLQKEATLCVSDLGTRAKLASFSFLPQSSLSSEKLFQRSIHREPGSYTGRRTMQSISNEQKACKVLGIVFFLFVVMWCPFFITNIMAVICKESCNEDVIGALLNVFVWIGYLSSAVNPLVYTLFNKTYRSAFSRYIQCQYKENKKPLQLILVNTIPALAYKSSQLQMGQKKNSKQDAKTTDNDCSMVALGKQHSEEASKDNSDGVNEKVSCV
T1 sequence (P32121 whole entry partner): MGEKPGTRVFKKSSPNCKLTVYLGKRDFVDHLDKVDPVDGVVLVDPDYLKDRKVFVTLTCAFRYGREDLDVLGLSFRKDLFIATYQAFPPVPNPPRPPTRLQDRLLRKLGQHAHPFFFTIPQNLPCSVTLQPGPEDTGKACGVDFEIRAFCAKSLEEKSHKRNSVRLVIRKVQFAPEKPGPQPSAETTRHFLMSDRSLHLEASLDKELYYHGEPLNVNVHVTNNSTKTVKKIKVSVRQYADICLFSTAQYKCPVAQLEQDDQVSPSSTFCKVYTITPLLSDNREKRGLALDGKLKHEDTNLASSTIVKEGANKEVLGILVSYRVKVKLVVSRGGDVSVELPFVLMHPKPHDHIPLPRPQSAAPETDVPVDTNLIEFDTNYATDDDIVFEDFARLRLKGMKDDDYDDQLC
T2 sequence (P28223 whole entry): as the sequence (P28223 whole entry, added parts left off) above
5-HT2B (h), sequence (P41595 whole entry): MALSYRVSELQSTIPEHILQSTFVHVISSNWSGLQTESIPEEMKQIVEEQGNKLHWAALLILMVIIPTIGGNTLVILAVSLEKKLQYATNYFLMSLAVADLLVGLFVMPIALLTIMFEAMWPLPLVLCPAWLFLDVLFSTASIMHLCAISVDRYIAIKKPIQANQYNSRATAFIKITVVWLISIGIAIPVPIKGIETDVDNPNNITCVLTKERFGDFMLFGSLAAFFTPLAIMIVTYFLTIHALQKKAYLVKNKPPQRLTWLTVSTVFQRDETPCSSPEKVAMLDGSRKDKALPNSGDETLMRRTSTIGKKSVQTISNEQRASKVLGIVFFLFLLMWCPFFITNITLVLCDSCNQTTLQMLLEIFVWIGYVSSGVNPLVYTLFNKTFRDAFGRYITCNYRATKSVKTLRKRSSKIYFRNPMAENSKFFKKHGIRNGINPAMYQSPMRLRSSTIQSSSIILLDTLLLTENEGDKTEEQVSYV

COc1cc(C[C@@H](C)N)c(OC)cc1I [R-DOI]
HTR counts, mean (C57BL/6J mice; 0.1 mg/kg SC): 46.5 counts/30 min
HTR counts, mean (C57BL/6J mice; 0.3 mg/kg SC): 78.8 ** counts/30 min
HTR counts, mean (C57BL/6J mice; 1 mg/kg SC): 128.0±13.2 counts/30 min and 128.0 ** counts/30 min
HTR counts, mean (C57BL/6J mice; 3 mg/kg SC): 116.0 ** counts/30 min
Peak HTR counts (C57BL/6J mice; Experiment 3, 1 mg/kg SC): 23.3±3.5 counts/5 min
ED50 (C57BL/6J mice; sc, read-out: ED50 for induction of HTR, based on molar mass): 0.63 µmol/kg
ED50 (C57BL/6J mice; SC, freebase weight, read-out: ED50 for induction of HTR): 0.2 mg/kg
ED50 (C57BL/6J mice; administered IP, otherwise identical conditions, read-out: ED50 for induction of HTR): 0.66 µmol/kg
Emax (5-HT2AR-Tango construct): 71.8%
Clint ([1]; human liver microsomes intrinsic clearance, 1.0×10^−7 M): <115.5
microsomal CLint ([1]; human, human liver microsomes): < 116 µL/min/mg
half-life ([1]; human, human liver microsomes, 1.0×10^−7 M, read-out: Half-life (minutes), 1st): 139 min
half-life ([1]; human, human liver microsomes, 1.0×10^−7 M, read-out: Half-life (minutes), 2nd): 188 min
half-life ([1]; human, human liver microsomes, 1.0×10^−7 M, read-out: Half-life (minutes), Mean): > 60 min
% Compound Remaining, 1st [1, 4]: 100%
% Compound Remaining, 2nd [1, 4]: 100%
% Compound Remaining, Mean [1, 4]: 100%
% Compound Remaining, 1st [1, 5]: 90.0%
% Compound Remaining, 2nd [1, 5]: 101.6%
% Compound Remaining, Mean [1, 5]: 96%
% Compound Remaining, 1st [1, 6]: 79.6%
% Compound Remaining, 2nd [1, 6]: 105.3%
% Compound Remaining, Mean [1, 6]: 92%
% Compound Remaining, 1st [1, 7]: 77.0%
% Compound Remaining, 2nd [1, 7]: 82.1%
% Compound Remaining, Mean [1, 7]: 80%
% Compound Remaining, 1st [1, 8]: 74.3%
% Compound Remaining, 2nd [1, 8]: {91.4} %
% Compound Remaining, Mean [1, 8]: 74%
% Protein bound, 1st ([2]; human plasma): 47.5%
% Protein bound, 2nd ([2]; human plasma): 49.6%
% Protein bound, Mean ([2]; human plasma): 49%
recovery ([2]; read-out: % Recovery, 1st): 126%
recovery ([2]; read-out: % Recovery, 2nd): 126%
recovery ([2]; read-out: % Recovery, Mean): 126%
recovery ([3]; read-out: % Recovery A-B, 1st): 72%
recovery ([3]; read-out: % Recovery A-B, 2nd): 72%
recovery ([3]; read-out: % Recovery A-B, Mean): 72%
recovery ([3]; read-out: % Recovery B-A, 1st): 87%
recovery ([3]; read-out: % Recovery B-A, 2nd): 88%
recovery ([3]; read-out: % Recovery B-A, Mean): 87%
Papp A→B ([3]; read-out: A-B Permeability, 1st): 23.7 ×10⁻⁶ cm/s
Papp A→B ([3]; read-out: A-B Permeability, 2nd): 23.2 ×10⁻⁶ cm/s
Papp A→B ([3]; read-out: A-B Permeability, Mean): 23.4 ×10⁻⁶ cm/s
Papp B→A ([3]; read-out: B-A Permeability, 1st): 19.1 ×10⁻⁶ cm/s
Papp B→A ([3]; read-out: B-A Permeability, 2nd): 19.3 ×10⁻⁶ cm/s
Papp B→A ([3]; read-out: B-A Permeability, Mean): 19.2 ×10⁻⁶ cm/s
Ki (5-HT2B (h)): 2.51 nM
Emax (human 5-HT2A receptor): 112%
